Residues, ends and D or L forms follow the SMILES beside them. *: point of attachment. X2 = CCc1c2c(nc3ccc(N*)cc13)-c1cc3c(c(=O)n1C2)COC(=O)[C@]3(O)CC; X1 = COCCOC(=O)*
Columns and labels:
Mus musculus [1] = species: Mus musculus; assay: Survival rate was determined as the ratio of mean survival days of treated group of mice to that of control group; type: functional
Mus musculus [2] = assay: Survival time of CDF1 mice inoculated with leukemia P388 cells determined after 40 days of intravenous administration of compound at 20 mg/kg on days 1, 5 and 9; type: functional

SMILES | T/C (Mus musculus [1]) | Survival time (Mus musculus [2])
CCc1c2c(nc3ccc(NC(=O)CNC(=O)[C@H](Cc4ccccc4)NC(=O)[C@H](CC(C)C)NC(=O)CNC(=O)OCCOC)cc13)-c1cc3c(c(=O)n1C2)COC(=O)[C@]3(O)CC (X1-GLFG-X2) | 170% | 13 days
COc1cccc2c1C(=O)c1c(O)c3c(c(O)c1C2=O)C[C@@](O)(C(=O)CO)C[C@@H]3O[C@H]1C[C@H](N)[C@H](O)[C@H](C)O1 [DOXORUBICIN] | >183% | >14 days
CCc1c2c(nc3ccc(OC(=O)N4CCC(N5CCCCC5)CC4)cc13)-c1cc3c(c(=O)n1C2)COC(=O)[C@]3(O)CC [IRINOTECAN] | 172% | –

— ChEMBL document CHEMBL1147505, “Efficient and chemoselective N-acylation of 10-amino-7-ethyl camptothecin with poly(ethylene glycol)” (2004)
